# In patent US20100119479A1, “THERAPEUTIC ANTIVIRAL PEPTIDES” (INTERMUNE, INC., priority 2008, published 2010):
# How the values were obtained:
# [1] = molecular target: T1, full-length NS3/NS4A-2 (HCV NS3 protease) (Hepatitis C virus genotype 1b, UniProt Q9WMX2); assay: NS3 Inhibition Assay (NS3-NS4 protease assay, RETS1 substrate); format: biochemical; settings: NS3/NS4A-2 protease
# T1 construct: Recombinant E. coli or Baculovirus full-length NS3; host or cells: E. coli or baculovirus (BV) expression
# Protocol: NS3 Complex Formation with NS4A-2.
# Recombinant E. coli or Baculovirus full-length NS3 was diluted to 3.33 μM with assay buffer and transferred material to an eppendorf tube and placed in a water bath in a 4° C. refrigerator. The appropriate amount of NS4A-2 diluted to […] in assay buffer was added to equal the volume of NS3 above (conversion factor—3.8 mg/272 μL assay buffer). The material was transferred to an eppendorf tube and placed in water bath in a 4° C. refrigerator.
# After equilibration to 4° C., equal volumes of NS3 and NS4A-2 solutions were combined in an eppendorf tube, mix gently with a manual pipettor, and incubate mixture for 15 minutes in the 4° C. water bath. Final concentrations in the mixture are 1.67 μM NS3, 4.15 mM NS4A-2 (2485-fold molar excess NS4A-2).
# After 15 minutes at 4° C., the NS3/NS4A-2 eppendorf tube was removed and place it in a room temperature water bath for 10 minutes. NS3/NS4A-2 was aliquoted at appropriate volumes and store at −80° C. (E. coli NS3 run at 2 nM in assay, aliquot at 25 μL. BV NS3 run at 3 nM in assay, aliquot at 30 μL).
# Step a. Sample compounds were dissolved to 10 mM in DMSO then diluted to 2.5 mM (1:4) in DMSO. Typically, compounds were added to an assay plate at 2.5 mM concentration, yielding upon dilution a starting concentration of 50 microM in the assay inhibition curve. Compounds were serial diluted in assay buffer to provide test solutions at lower concentrations.
# Step b. The E. coli. NS3/NS4A-2 was diluted to 4 nM NS3 (1:417.5 of 1.67 μM stock−18 μL1.67 μM stock+7497 μL assay buffer). The BV NS3/NS4A-2 was diluted to 6 nM NS3 (1:278.3 of 1.67 μM stock−24 μL1.67 μM stock+6655 μL assay buffer).
# Step c. Using the manual multichannel pipettor, and being careful not to introduce bubbles into the plate, 50 μL assay buffer were added to wells A01-H01 of a black Costar 96-well polypropylene storage plate.
# Step d. Using the manual multichannel pipettor, and being careful not to introduce bubbles into the plate, 50 μL of diluted NS3/NS4A-2 from Step b were added to wells A02-H12 of the plate in Step c.
# Step e. Using the manual multichannel pipettor, and being careful not to introduce bubbles into the plate, 25 μL of the wells in drug dilution plate in Step a were transferred to corresponding wells in assay plate in Step d. The tips on the multichannel pipettor were changed for each row of compounds transferred.
# Step f Using the manual multichannel pipettor, and being careful not to introduce bubbles into the plate, the contentes of the wells from the assay plate in Step e were mixed by aspirating and dispensing 35 μL of the 75 μL in each well five times. The tips on multichannel pipettor were changed for each row of wells mixed.
# Step g. The plate was covered with a polystyrene plate lid, and the plate from Step f containing NS3 protease and sample compounds was pre-incubated 10 minutes at room temperature.
# While plate from Step g is pre-incubating, the RETS1 substrate was diluted in a 15 mL polypropylene centrifuge tube. The RETS1 substrate was diluted to 8 μM (1:80.75 of 646 μM stock—65 μL 646 μM stock+5184 μL assay buffer).
# After the plate in Step g was done pre-incubating, and using the manual multichannel, 25 μL of substrate were added to all wells on the plate. The contents of the wells of the plate were quickly mixed, as in Step f, mixing 65 μL of the 100 μL in the wells.
# The plate was read in kinetic mode on the Molecular Devices SpectraMax Gemini XS plate reader. Reader settings: Read time: 30 minutes, Interval: 36 seconds, Reads: 51, Excitation λ: 335 nm, Emission λ: 495 nm, cutoff: 475 nm, Automix: off, Calibrate: once, PMT: high, Reads/well: 6, Vmax pts: 21 or 28/51 depending on length of linearity of reaction
# IC50s are determined using a four parameter curve fit equation, and converted to Ki's using the following Km's: […]
# Full-length E. coli NS3−2.03 μM
# Full-length BV NS3−1.74 μM
# where Ki=IC50/(1+[S]/Km))
# [2] = tested on: HCV sub-genomic replicon, GS4.3 (HuH-7 hepatoma cells); assay: Quantitation by ELISA of NPTII in the HCV sub-genomic replicon, GS4.3; format: cell-based; settings: Hepatitis C virus, GS4.3 replicon cells, 72 h incubation
# Excerpt: Quantitation by ELISA of the Selectable Marker Protein, Neomycin Phosphotransferase II (NPTII) in the HCV Sub-Genomic Replicon, GS4.3
# The HCV sub-genomic replicon (1377/NS3-3′, accession No. AJ242652), stably maintained in HuH-7 hepatoma cells, was created by Lohmann et al. Science 285: 110-113 (1999). The replicon-containing cell culture, designated GS4.3, was obtained from Dr. Christoph Seeger of the Institute for Cancer Research, Fox Chase Cancer Center, Philadelphia, Pa.
# GS4.3 cells were maintained at 37° C., 5% CO2, in DMEM (Gibco 11965-092) supplemented with L-glutamine 200 mM (100×) (Gibco25030-081), non-essential amino acids (NEAA)(Biowhittaker 13-114E), heat-inactivated (HI) Fetal Bovine Serum(FBS)(Hyclone SH3007.03) and 750 μg/mL geneticin (G418)(Gibco 10131-035). Cells were sub-divided 1:3 or 4 every 2-3 days.
# 24 h prior to the assay, GS4.3 cells were collected, counted, and plated in 96-well plates (Costar 3585) at 7500 cells/well in […] standard maintenance medium (above) and incubated in the conditions above. To initiate the assay, culture medium was removed, cells were washed once with PBS (Gibco 10010-023) and 90 μl Assay Medium (DMEM, L-glutamine, NEAA, 10% HI FBS, no G418) was added. Inhibitors were made as a 10× stock in Assay Medium, (3-fold dilutions from 10 μM to […] final concentration, final DMSO concentration 1%), […] were added to duplicate wells, plates were rocked to mix, and incubated as above for 72 h.
# An NPTII Elisa kit was obtained from AGDIA, Inc. (Compound direct ELISA test system for Neomycin Phosphotransferase II, PSP 73000/4800). Manufacturer's instructions were followed, with some modifications. 10×PEB-1 lysis buffer was made up to include 500 μM PMSF (Sigma P7626, 50 mM stock in isopropanol). After 72 h incubation, cells were washed once with PBS and […] PEB-1 with PMSF was added per well. Plates were agitated vigorously for 15 minutes, room temperature, then frozen at −70° C. Plates were thawed, lysates were mixed thoroughly, and 100 μl were applied to an NPTII Elisa plate. A standard curve was made. Lysate from DMSO-treated control cells was pooled, serially diluted with PEB-1 with PMSF, and applied to duplicate wells of the ELISA plate, in a range of initial lysate amount of 150 μL-2.5 μL. In addition, 100 μL buffer alone was applied in duplicate as a blank. Plates were sealed and gently agitated at room temperature for 2 h. Following capture incubation, the plates were washed 5×300 μL with PBS-T (0.5% Tween-20, PBS-T was supplied in the ELISA kit). For detection, a 1× dilution of enzyme conjugate diluent MRS-2 (5×) was made in PBS-T, into which 1:100 dilutions of enzyme conjugates A and B were added, as per instructions. Plates were resealed, and incubated with agitation, covered, room temperature, for 2 h. The washing was then repeated and 100 μL, of room temperature TMB substrate was added. After approximately 30 minutes incubation (room temperature, agitation, covered), the reaction was stopped with 50 μL, 3M sulfuric acid. Plates were read at 450 nm on a Molecular Devices Versamax plate reader.
# Inhibitor effect was expressed as a percentage of DMSO-treated control signal, and inhibition curves were calculated using a 4-parameter equation: y=A+((B−A)/(1+((C/x)̂D))), where C is half-maximal activity or EC50.
# T1 sequence (Q9WMX2 1027-1657): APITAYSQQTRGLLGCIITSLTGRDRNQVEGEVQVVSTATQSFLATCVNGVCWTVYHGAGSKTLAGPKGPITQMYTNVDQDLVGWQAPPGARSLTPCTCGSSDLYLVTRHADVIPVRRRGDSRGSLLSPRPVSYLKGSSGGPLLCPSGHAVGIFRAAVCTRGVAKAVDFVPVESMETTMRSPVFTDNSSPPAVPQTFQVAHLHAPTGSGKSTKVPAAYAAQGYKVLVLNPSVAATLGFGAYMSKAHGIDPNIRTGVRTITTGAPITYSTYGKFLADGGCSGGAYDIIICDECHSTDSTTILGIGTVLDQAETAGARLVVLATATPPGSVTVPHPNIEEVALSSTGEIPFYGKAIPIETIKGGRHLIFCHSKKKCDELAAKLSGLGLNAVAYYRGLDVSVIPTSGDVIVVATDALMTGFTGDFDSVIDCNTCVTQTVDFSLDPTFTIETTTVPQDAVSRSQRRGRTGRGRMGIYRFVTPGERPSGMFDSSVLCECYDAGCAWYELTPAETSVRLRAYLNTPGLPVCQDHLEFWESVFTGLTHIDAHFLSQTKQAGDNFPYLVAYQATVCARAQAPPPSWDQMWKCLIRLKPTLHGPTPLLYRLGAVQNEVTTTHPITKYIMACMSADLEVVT
# T1 sequence (Q9WMX2 1658-1711): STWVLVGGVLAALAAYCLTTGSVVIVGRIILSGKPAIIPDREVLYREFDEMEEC
Compound,IC50 [1] [nM],EC50 [2] [nM]
CC[C@@H]1C[C@]1(NC(=O)[C@@H]1C[C@@H](Oc2cc(-c3nc(C(C)C)cs3)nc3c(C)c(OC)ccc23)CN1C(=O)[C@@H](Nc1ccc(F)c(C(F)(F)F)c1)C(C)(C)C)C(=O)NS(=O)(=O)N(C)C [Compound 309],< 100,< 100
CC(C)(C)[C@H](Nc1ccc(F)c(C(F)(F)F)c1)C(=O)N1C[C@H](OC(=O)N2Cc3cccc(Cl)c3C2)C[C@H]1C(=O)N[C@]1(C(=O)NS(=O)(=O)C2CC2)C[C@H]1C1CC1 [Compound 294],< 100,< 100
C=C[C@@H]1C[C@]1(NC(=O)[C@@H]1C[C@@H](Oc2cc(-c3nc(C(C)C)cs3)nc3c(C)c(OC)ccc23)CN1C(=O)[C@@H](Nc1cc(Cl)cc(C(F)(F)F)c1)C(C)(C)C)C(=O)NS(=O)(=O)C1(C)CC1 [Compound 403],< 100,< 100
CC[C@@H]1C[C@]1(NC(=O)[C@@H]1C[C@@H](OC(=O)N2Cc3ccc(NC(=O)COC)cc3C2)CN1C(=O)[C@@H](Nc1cc(F)cc(C(F)(F)F)c1)C(C)(C)C)C(=O)NS(=O)(=O)C1CC1 [Compound 19],< 100,< 100
CC[C@@H]1C[C@]1(NC(=O)[C@@H]1C[C@@H](Oc2cc(-c3ccccc3)nc3cc(OC)ccc23)CN1C(=O)[C@@H](Nc1cccc(C(F)(F)F)c1)C(C)(C)C)C(=O)NS(=O)(=O)C1(C)CC1 [Compound 230],< 100,< 100
CC(C)(C)[C@H](Nc1cc(F)cc(C(F)(F)F)c1)C(=O)N1C[C@H](OC(=O)N2Cc3cccc(Cl)c3C2)C[C@H]1C(=O)N[C@]1(C(=O)NS(=O)(=O)C2(C)CC2)C[C@H]1C1CC1 [Compound 298],< 100,< 100
CC[C@@H]1C[C@]1(NC(=O)[C@@H]1C[C@@H](OC(=O)N2Cc3cccc(F)c3C2)CN1C(=O)[C@@H](Nc1cccc(C(F)(F)F)c1)C(C)(C)C)C(=O)NS(=O)(=O)C1(C)CC1 [Compound 290],< 100,< 100
CC[C@@H]1C[C@]1(NC(=O)[C@@H]1C[C@@H](OC(=O)N2Cc3cccc(F)c3C2)CN1C(=O)[C@@H](Nc1ccc(C(=O)O)cc1)C(C)(C)C)C(=O)NS(=O)(=O)C1CC1 [Compound 3],< 100,> 1000
C=C[C@@H]1C[C@]1(NC(=O)[C@@H]1C[C@@H](Oc2cc(-c3ccccc3)nc3cc(OC)ccc23)CN1C(=O)[C@@H](Nc1cc(F)cc(C(F)(F)F)c1)C(C)(C)C)C(=O)NS(=O)(=O)C1(C)CC1 [Compound 281],< 100,< 100
CC[C@@H]1C[C@]1(NC(=O)[C@@H]1C[C@@H](OC(=O)N2Cc3cccc(F)c3C2)CN1C(=O)[C@@H](Nc1ccc(F)c(C#N)c1)C(C)(C)C)C(=O)NS(=O)(=O)C1CC1 [Compound 15],< 100,100 to 1000
C=C[C@@H]1C[C@]1(NC(=O)[C@@H]1C[C@@H](Oc2cc(-c3nc(C(C)C)cs3)nc3c(C)c(OC)ccc23)CN1C(=O)[C@@H](Nc1ccccc1[N+](=O)[O-])C(C)(C)C)C(=O)NS(=O)(=O)C1CC1 [Compound 351],100 to 1000,< 100
CC[C@@H]1C[C@]1(NC(=O)[C@@H]1C[C@@H](OC(=O)N2Cc3cccc(F)c3C2)CN1C(=O)[C@@H](Nc1cccc(COCC2(C)COC2)c1)C(C)(C)C)C(=O)NS(=O)(=O)C1CC1 [Compound 14],< 100,100 to 1000
C=C[C@@H]1C[C@]1(NC(=O)[C@@H]1C[C@@H](Oc2cc(-c3nc(C(C)C)cs3)nc3c(C)c(OC)ccc23)CN1C(=O)[C@@H](Nc1ccccc1)C(C)(C)C)C(=O)NS(=O)(=O)C1CC1 [Compound 353],< 100,< 100
CC[C@@H]1C[C@]1(NC(=O)[C@@H]1CC(Oc2cc(-c3nc(C(C)C)cs3)nc3c(C)c(OC)ccc23)CN1C(=O)[C@@H](Nc1cccc(C(F)(F)F)c1)C(C)(C)C)C(=O)NS(=O)(=O)C1(C)CC1 (some centres unmarked) [Compound 336],< 100,< 100
C=C[C@@H]1C[C@]1(NC(=O)[C@@H]1C[C@@H](Oc2cc(-c3nc(C(C)C)cs3)nc3c(C)c(OC)ccc23)CN1C(=O)[C@@H](Nc1cc(F)cc(C(F)(F)F)c1)C(C)(C)C)C(=O)NS(=O)(=O)C1(C)CC1 [Compound 334],< 100,< 100
CC[C@@H]1C[C@]1(NC(=O)[C@@H]1C[C@@H](OC(=O)N2Cc3cccc(F)c3C2)CN1C(=O)[C@@H](Nc1cccc(C(=O)N2CCNCC2)c1)C(C)(C)C)C(=O)NS(=O)(=O)C1CC1 [Compound 9],< 100,> 1000
